According to patent US20210121426A1, “BLOOD PURIFICATION BY ALKALINIZING AGENT” (TOHOKU UNIVERSITY, priority 2017, published 2021):
Marks after values point to notes of the source that are not given here.

How the values were obtained:
[1] = system: phenylacetyl-L-glutamine; assay: Human clinical trial in CKD patients: phenylacetyl-L-glutamine in plasma and early morning urine (LC-MS/MS); assay type: in vivo; parameters: key to Influence on concentration of PAG / Influence on PAG U/P ratio: Excellent effects: ◯; Poor effects: X; No significant difference: —; (◯): whether or not there is an effect of promoting excretion of indoxyl sulfate into the urine cannot be determined
Description: (§1) 1. […] Patients were assigned to each group so that age, sex, presence of diabetes, and eGFR were not biased. Each group was treated according to the “CKD medical care guide-summary of treatment” (hereinafter referred to as standard treatment).
(§2) An alkalinizing agent was not administered to the control group. […] A pH of early morning urine was controlled over time so that the dosage could be increased up to 6 tablets, 3 times a day (morning, noon, evening) as needed according to the discretion of the physician in cases where a pH of early morning urine was less than pH 6.5. To the group B, 3 tablets a day in which each tablet contained 500 mg of sodium bicarbonate were orally administered 3 times a day (morning, noon, evening) for 24 weeks. A pH of early morning urine was controlled over time so that the dosage could be increased up to 6 tablets, 3 times a day (morning, noon, evening) as needed according to the discretion of the physician in cases where a pH of early morning urine was less than pH 6.5.
(§3) Early morning urine and blood were collected before the start of administration, and 6 weeks, 12 weeks, and 24 weeks after the start of administration, and each specimen was stored at −80° C. Methods used in the present field for indoxyl sulfate, p-cresyl sulfate, phenylacetyl-L-glutamine, hippuric acid, and argininosuccinic acid in urine and blood (Sato, E., et. al., Metabolic alteration by indoxyl sulfate in skeletal muscle induce uremic sarcopenia in chronic kidney disease., Sci Rep. 2016 Nov. 10; 6:36618. doi: 10.1038/srep36618, and the like) were referred to, and quantitative analysis was performed using the following liquid chromatography triple quadrupole mass spectrometer (LC-MS/MS).
For LC, NANOSPACE SI-2 (manufactured by Shiseido) was used, and […] MGM was selected as the analytical column.
For MS, TSQ Quantiva (manufactured by Thermo Fisher Scientific Co., Ltd.) was used, and five compounds were ionized in the negative mode and detected using the Selected Reaction Monitoring method. The quantitative value was calculated using a calibration curve prepared with a standard solution of each compound.
(§4) For statistical analysis, the Mann-Whitney test was used for comparison between groups, and the Wilcoxon test was used for comparison of changes over time. The Pearson test was used for correlation.
Then, the average value and SD of each group were calculated for (i) to (ix) above. For each of (iv) to (ix) above, the average value and SD of each group were calculated for all data of 6 weeks, 12 weeks, and 24 weeks after the start of administration in each group.

[2] = system: cystatin C; assay: Human clinical trial: cystatin C (colloidal gold agglutination method); assay type: in vivo
Description: as §1, §2, §3
In addition, the amount of urinary β2-microglobulin was measured by latex agglutination method using the LZ test “Eiken” β2-M and LZ-β2-M standard U “Eiken” (Eiken Chemical Co., Tokyo, Japan). Furthermore, the amount of cystatin C in the serum was measured by a colloidal gold agglutination method using Nescoat GC Cystatin C (Nm) (Alfresa Pharma, Osaka, Japan).
as §4

[3] = Human clinical trial: urinary specific gravity of early morning urine (urine hydrometer); assay type: in vivo
Description: as §1, §2
In addition, amounts of change in each urinary specific gravity after 6, 12, and 24 weeks after the start of the test are respectively shown as a % relative value with respect to each urinary specific gravity before the start of the test, and a difference from urinary specific gravity before the start of the teste in Tables 11-0-2 and 11-0-3. The urinary specific gravity was measured using a urine hydrometer (PAL-09S, Atago Co., Ltd., Tokyo, Japan).

[4] = system: indoxyl sulfate; assay: Urine indoxyl sulfate (IS) corrected by urinary specific gravity; assay type: in vivo, human
From the text: (§5) Medical Examination, Vol. 44, No. 1, 1995, pages 79-83 by Tetsuo Aoki et al. was referred to. A urinary specific gravity 1.022 was converted into a reference value.
(§6) Specific gravity correction value (unit/1.022·UG)=actual measurement value×(1.022−1.000)/(specific gravity value−1.000)

[5] = system: hippuric acid; assay: Urine hippuric acid (HA) corrected by urinary specific gravity; assay type: in vivo, human
From the text: as §5, §6

[6] = 0 W, before the start of administration
[7] = 6-24 W, all data of 6, 12 and 24 weeks

With `O=C([O-])O.[Na+]` [Bicarbonate, sodium bicarbonate] the “Phenyl Acetyl L-Glutamine (PAG)-Urine/Plasma ratio” value [1, 6] was 102.2 ± 96.5, the “Plasma Phenyl Acetyl L-Glutamine (PAG)” value [1, 6] was 1324 ± 949 ng/mL and the “Urine Phenyl Acetyl L-Glutamine (PAG) (early morning urine)” value (shortened to “Urine Phenyl Acetyl L-Glutamine (PAG)”) [1, 6] was 124676 ± 149757 ng/mL. The “PAG - Urine/Plasma ratio, change from week 0” value [1, 7] was −14.9 ± 95.3, the “Phenyl Acetyl L-Glutamine (PAG)-Urine/Plasma ratio” value [1, 7] was 87.3 ± 86.2 and the “Plasma PAG, change from week 0” value [1, 7] was -98.6 ± 688.1 ng/mL. For the same compound, the “Plasma Phenyl Acetyl L-Glutamine (PAG)” value [1, 7] was 1226 ± 983 ng/mL, the “Urine PAG, change from week 0” value [1, 7] was -13663 ± 74566 ng/mL and the “Urine Phenyl Acetyl L-Glutamine (PAG)” value [1, 7] was 109378 ± 163923 ng/mL. For the same compound, the “PAG - Urine/Plasma ratio, change from week 0” value ([1]; 6 W) was −8.5 ± 57.8, the “Phenyl Acetyl L-Glutamine (PAG)-Urine/Plasma ratio” value ([1]; 6 W) was 93.7 ± 84.0 and the “Plasma PAG, change from week 0” value ([1]; 6 W) was -84.0 ± 636.1 ng/mL. For the same compound, the “Plasma Phenyl Acetyl L-Glutamine (PAG)” value ([1]; 6 W) was 1240 ± 1062 ng/mL, the “Urine PAG, change from week 0” value ([1]; 6 W) was 20077 ± 118811 ng/mL and the “Urine Phenyl Acetyl L-Glutamine (PAG)” value ([1]; 6 W) was 144753 ± 246773 ng/mL. The “PAG - Urine/Plasma ratio, change from week 0” value ([1]; 12 W) was −31.8 ± 81.8, the “Phenyl Acetyl L-Glutamine (PAG)-Urine/Plasma ratio” value ([1]; 12 W) was 70.4 ± 46.8 and the “Plasma PAG, change from week 0” value ([1]; 12 W) was -171.6 ± 896.9 ng/mL. The “Plasma Phenyl Acetyl L-Glutamine (PAG)” value ([1]; 12 W) was 1153 ± 1000 ng/mL, the “Urine PAG, change from week 0” value ([1]; 12 W) was -42198 ± 85069 ng/mL and the “Urine Phenyl Acetyl L-Glutamine (PAG)” value ([1]; 12 W) was 82478 ± 112943^b ng/mL. The “concentration of phenylacetyl-L-glutamine in urine” value ([1]; 12 and 24 weeks after administration, compared to before administration) was “such an effect was not recognized”, the “PAG - Urine/Plasma ratio, change from week 0” value ([1]; 24 W) was −4.3 ± 133.9 and the “Phenyl Acetyl L-Glutamine (PAG)-Urine/Plasma ratio” value ([1]; 24 W) was 97.9 ± 116.4. For the same compound, the “Plasma PAG, change from week 0” value ([1]; 24 W) was -40.3 ± 514.7 ng/mL, the “Plasma Phenyl Acetyl L-Glutamine (PAG)” value ([1]; 24 W) was 1284 ± 945 ng/mL and the “Urine PAG, change from week 0” value ([1]; 24 W) was -23774 ± 117957 ng/mL. The “Urine Phenyl Acetyl L-Glutamine (PAG)” value ([1]; 24 W) was 100902 ± 91424 ng/mL, the “Influence on concentration of PAG” value ([1]; Plasma, comparison with Cont) was “—” and the “Influence on concentration of PAG” value ([1]; Plasma, comparison with reference drug) was “—”. The “Influence on PAG U/P ratio” value ([1]; comparison with Cont) was “—”, the “Influence on PAG U/P ratio” value ([1]; comparison with reference drug) was “—” and the “Influence on concentration of PAG” value ([1]; Urine, comparison with Cont) was “—”. For the same compound, the “Influence on concentration of PAG” value ([1]; Urine, comparison with reference drug) was “X”, the “concentration of phenylacetyl-L-glutamine in plasma (decreasing effect)” value ([1]; compared to before administration) was “strongly recognized” and the “Plasma Cystatine C” value [2, 6] was 1.165 ± 0.296 mg/L. The “Plasma Cystatine C” value [2, 7] was 1.154 ± 0.278 mg/L, the “Plasma Cystatine C” value ([2]; 6 W) was 1.171 ± 0.281 mg/L and the “Plasma Cystatine C” value ([2]; 12 W) was 1.151 ± 0.295 mg/L. For the same compound, the “Plasma Cystatine C” value ([2]; 24 W) was 1.141 ± 0.275 mg/L, the “influence on the function of glomeruli” value ([2]; from cystatin C, Table 8) was “no influence” and the “Urine Specific Gravity” value ([3]; 0 W, before the start of the test) was 1.014 ± 0.007. For the same compound, the “Urine Specific Gravity” value ([3]; 6-24 W, all data) was 1.014 ± 0.006, the “Urine Specific Gravity (% Relative value vs week 0)” value ([3]; 6-24 W, all data) was 100.00 ± 0.67% and the “Urine Specific Gravity, difference vs week 0” value ([3]; 6-24 W, all data) was 0.0002 ± 0.0058^b. The “Urine Specific Gravity” value ([3]; 6 W) was 1.014 ± 0.006, the “Urine Specific Gravity (% Relative value vs week 0)” value ([3]; 6 W) was 100.02 ± 0.53% and the “Urine Specific Gravity, difference vs week 0” value ([3]; 6 W) was 0.0002 ± 0.0054. The “Urine Specific Gravity” value ([3]; 12 W) was 1.013 ± 0.005, the “Urine Specific Gravity (% Relative value vs week 0)” value ([3]; 12 W) was 99.89 ± 0.58^e % and the “Urine Specific Gravity, difference vs week 0” value ([3]; 12 W) was −0.0012 ± 0.0058^e. The “Urine Specific Gravity” value ([3]; 24 W) was 1.016 ± 0.007, the “Urine Specific Gravity (% Relative value vs week 0)” value ([3]; 24 W) was 100.17 ± 0.61% and the “Urine Specific Gravity, difference vs week 0” value ([3]; 24 W) was 0.0017 ± 0.0062. The “urinary specific gravity value” ([3]; over 6, 12 and 24 weeks, compared with the control group) was “maintained or increased”, the “Urine IS, specific gravity corrected” value ([4]; 6-24 W, all data) was 76.7 ± 38.0 μg · mL^−1/1.022 · UG and the “Urine IS, specific gravity corrected, % Relative value vs week 0” value (“Urine IS … % Relative value vs week 0” for short) ([4]; 6-24 W, all data) was 89 ± 45%. The “Urine IS, specific gravity corrected, difference vs week 0” value (“Urine IS … difference vs week 0” below) ([4]; 6-24 W, all data) was −15.9 ± 34.4 μg · mL^−1/1.022 · UG, the “Urine IS, specific gravity corrected” value ([4]; 6 W) was 83.3 ± 41.9 μg · mL^−1/1.022 · UG and the “Urine IS … % Relative value vs week 0” value ([4]; 6 W) was 95 ± 30%. The “Urine IS … difference vs week 0” value ([4]; 6 W) was −9.3 ± 27.7 μg · mL^−1/1.022 · UG, the “Urine IS … % Relative value vs week 0” value ([4]; 12 W) was 77 ± 42% and the “Urine IS … difference vs week 0” value ([4]; 12 W) was −27.0 ± 32.9^ μg · mL^−1/1.022 · UG. The “Urine IS, specific gravity corrected” value ([4]; 24 W) was 81.1 ± 41.6 μg · mL^−1/1.022 · UG, the “Urine IS … % Relative value vs week 0” value ([4]; 24 W) was 95 ± 59% and the “Urine IS … difference vs week 0” value ([4]; 24 W) was −11.4 ± 40.8 μg · mL^−1/1.022 · UG. For the same compound, the “Urine HA, specific gravity corrected” value ([5]; 0 W) was 202.3 ± 185.6 μg · mL^−1/1.022 · UG, the “Urine HA, specific gravity corrected” value ([5]; 6-24 W, all data) was 170.2 ± 101.6 μg · mL^−1/1.022 · UG and the “Urine HA, specific gravity corrected, % Relative value vs week 0” value (“Urine HA … % Relative value vs week 0” for short) ([5]; 6-24 W, all data) was 118 ± 106%. For the same compound, the “Urine HA, specific gravity corrected, difference vs week 0” value (“Urine HA … difference vs week 0” below) ([5]; 6-24 W, all data) was −32.1 ± 160.3 μg · mL^−1/1.022 · UG, the “Urine HA, specific gravity corrected” value ([5]; 6 W) was 161.8 ± 111.1 μg · mL^−1/1.022 · UG and the “Urine HA … % Relative value vs week 0” value ([5]; 6 W) was 104 ± 89%. The “Urine HA … difference vs week 0” value ([5]; 6 W) was −40.5 ± 171.7 μg · mL^−1/1.022 · UG, the “Urine HA, specific gravity corrected” value ([5]; 12 W) was 171.1 ± 87.0 μg · mL^−1/1.022 · UG and the “Urine HA … % Relative value vs week 0” value ([5]; 12 W) was 133 ± 134%. For the same compound, the “Urine HA … difference vs week 0” value ([5]; 12 W) was −31.2 ± 163.7 μg · mL^−1/1.022 · UG, the “Urine HA, specific gravity corrected” value ([5]; 24 W) was 177.7 ± 111.0 μg · mL^−1/1.022 · UG and the “Urine HA … % Relative value vs week 0” value ([5]; 24 W) was 118 ± 96%. The “Urine HA … difference vs week 0” value ([5]; 24 W) was −24.6 ± 155.3 μg · mL^−1/1.022 · UG.
